Blank lines part the entries; values can stand above or below the substance they belong to.
Tests used:
Format in all cases: physicochemical
[1] = Anti-gellant effect of adding polar aprotic solvents (DMSO) to non-aqueous protic solvent formulations; conditions: adding polar aprotic solvents such as DMSO to non-aqueous protic solvent formulation
From the text: For example, leuprolide can be induced to gel by increasing peptide concentration, introduction of salts or gentle agitation. Improving physical stability can allow for easier parenteral administration, including administration using implantable drug delivery systems.
Thus, these solvents have an anti-gellant effect.

[2] = Stability of nafarelin formulations, one month at 37°C, RP-HPLC (Example 11); conditions: for % CONCENTRATION: % concentration method called unreliable
Method: (§1) Stability samples were analyzed using RP-HPLC. The area under the curve for the leuprolide peak divided by the sum of the areas under the curve of all peaks gave % purity. [It should be noted that the data for % concentration presented with the % purity data (Examples 6, 8, 9 and 10) are inconclusive. The analysis methods used to determine % concentration in these experiments were unreliable.]
Formulations of 15% (w/w) nafarelin in either PEG 600 or propylene glycol were prepared as described above for leuprolide and placed in polymeric containers.
The containers were stored at 37°C for one month in an incubator.
The samples were analyzed using RP-HPLC to determine the chemical stability of the aged formulations.

[3] = Solubility studies of leuprolide acetate in PG (Example 3); conditions: in PG (w/w), heated at 80°C to accelerate dissolution
Method: Leuprolide acetate (obtained, for example, from Mallinckrodt, St. Louis, Missouri) was weighed and dissolved using heat (80°C), swirling, agitation and/or centrifugation as needed, in vehicle (PG, PEG, MPEG, PG/H2O, PG/H2O, PEG/PG, MPEG/H2O, or PG with EDTA) at the appropriate concentration (w/w). Unless otherwise noted the term PEG means PEG 300. The term dry PG refers to PG formulations prepared in a low moisture environment (i.e., dry N2 atmosphere). Leuprolide acetate formulations in PG were prepared as described above. Formulations were heated at 80°C to accelerate the dissolution of leuprolide in PG.

[4] = Stability of goserelin formulations, one month at 37°C, RP-HPLC (Example 10); conditions: for % CONCENTRATION: patent calls % concentration data unreliable
Method: as §1
Formulations of 40-45% (w/w) goserelin in either PEG 600 or PG/acetate buffer (30:70) were prepared as described above and placed in polymeric containers. The containers were stored at 37°C for one month in an incubator. The samples were analyzed using RP-HPLC to determine the chemical stability of the aged formulations.

[5] = vehicle PEG 600, one month at 37°C

Substance: nafarelin
- % PURITY ([2]; vehicle PEG 600, 15% (w/w), one month at 37°C): 99.4%
- % CONCENTRATION [2, 5]: 15.8%
- % PURITY ([2]; vehicle PG, 15% (w/w), one month at 37°C): 99.4%
- % CONCENTRATION ([2]; vehicle PG, one month at 37°C): 12.9%

Substance: goserelin
- gelation of the formulation [1]: prevents gelation
- % PURITY ([4]; vehicle PEG 600, 40-45% (w/w), one month at 37°C): 99.3%
- % CONCENTRATION [4, 5]: 23.6%
- % PURITY ([4]; vehicle PG/Acetate Buffer(30:70), 40-45% (w/w), one month at 37°C): 98.2%
- % CONCENTRATION ([4]; vehicle PG/Acetate Buffer(30:70), one month at 37°C): 49.7%

Continued, values first:

- gelation of the formulation [1]: prevents gelation
Substance: leuprolide

- gelation of the formulation [1]: prevents gelation
Substance: calcitonin

- % Leuprolide Acetate ([3]; 146.8 mg leuprolide acetate in 147.2 mg PG): 49.93%
- % Leuprolide Acetate ([3]; 148.6 mg leuprolide acetate in 225.7 mg PG): 39.70%
- % Leuprolide Acetate ([3]; 154 mg leuprolide acetate in 183.7 mg PG): 45.60%
Substance: Leuprolide acetate

— EP0909175B1, “NON-AQUEOUS PROTIC PEPTIDE FORMULATIONS” (ALZA CORPORATION, priority 1996, dated 1998)
